Legend:
Type in all cases: cell-based, murine
[1] = tested on: Pan02 cells; assay: In vitro cell viability assay (CellTiter-Glo), Pan02
Excerpt: No significant changes in body weights were noted.

[2] = tested on: A20 cells; assay: In vitro cell viability assay, A20
[3] = tested on: MBT-2 cells; assay: In vitro cell viability assay, MBT-2

N.N.[Cl][Pt][Cl] [Cisplatin, reference compound]
IC50 [1]: 1090 nM | IC50 [2]: 1070 nM | IC50 [3]: 6870 nM

— patent publication US11033537B2, “LPT-723 and immune checkpoint inhibitor combinations and methods of treatment” (BIOMED VALLEY DISCOVERIES, INC., priority 2015, dated 2021)
